Test results: US20230271956A1, “AMIDE DERIVATIVES” (Merck Patent GmbH, priority 2020, published 2023)

Tests used:
human rec ACSS2 = molecular target: T1, human rec ACSS2 (Homo sapiens, UniProt Q9NR19); test: Biochemical activity ACSS2 assay (AMP-Glo); details: human recombinant ACSS2, AMP-Glo, 180 min at 37° C.
T1 construct: myc (C); purchased Origene
In short: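 C-terminal myc-tagged human recombinant ACSS2 (1 nM) reacted with 100 µM ATP, 100 µM CoA and 500 µM acetate (final) in pH 7.5 Hepes buffer for 180 min at 37° C, compound in 10 concentrations from 30 µM. Released AMP detected by AMP-Glo luminescence. IC50 normalised to inhibitor-free reaction and 5 µM reference inhibitor.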

ACSS2 [1] = molecular target: T2, ACSS2 (Homo sapiens, UniProt Q9NR19); test: Cellular assay of 14C acetate incorporation into fatty acids (IC50 ACSS2 cellular lipids); format: cell-based; details: HCT-15 cells
T2 construct: endogenous fatty acid synthesis activity in the human HCT-15 cancer cell line; endogenous in cells; host or cells: HCT-15
T2 sequence (Q9NR19 whole entry): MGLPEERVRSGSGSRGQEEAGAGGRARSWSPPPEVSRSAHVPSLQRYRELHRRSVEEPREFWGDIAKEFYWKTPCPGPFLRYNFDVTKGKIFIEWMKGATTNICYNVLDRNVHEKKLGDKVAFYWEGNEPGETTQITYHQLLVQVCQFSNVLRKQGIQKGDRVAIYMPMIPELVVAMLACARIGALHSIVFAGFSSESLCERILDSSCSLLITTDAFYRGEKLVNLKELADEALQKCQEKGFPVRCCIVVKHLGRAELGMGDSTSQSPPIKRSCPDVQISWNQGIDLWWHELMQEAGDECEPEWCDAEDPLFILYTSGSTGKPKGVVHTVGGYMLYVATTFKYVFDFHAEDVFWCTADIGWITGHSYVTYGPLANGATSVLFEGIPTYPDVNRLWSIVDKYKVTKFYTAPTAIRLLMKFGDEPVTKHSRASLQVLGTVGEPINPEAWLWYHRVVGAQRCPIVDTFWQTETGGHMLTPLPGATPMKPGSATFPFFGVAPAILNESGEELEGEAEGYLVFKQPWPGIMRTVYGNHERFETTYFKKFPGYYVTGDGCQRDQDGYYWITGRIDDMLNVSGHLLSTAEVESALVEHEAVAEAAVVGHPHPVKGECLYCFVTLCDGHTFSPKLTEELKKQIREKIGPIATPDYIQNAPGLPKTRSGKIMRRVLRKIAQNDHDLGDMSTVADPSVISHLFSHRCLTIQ
Description: This protocol describes a cellular assay capable to quantify endogenous fatty acid synthesis activity in the human HCT-15 cancer cell line following the incorporation of extracellularly administered radiolabeled ^14C acetate with a scintillation proximity based read out on extracted fatty acids.
HCT-15 cells were grown in RPMI 1640 (Gibco) supplemented with 2 mM glutamine, 1 mM sodium pyruvate 10 mM HEPES and 10 % FCS (heat-inactivated) passaged every 2-3 days to remain a subconfluent, vital culture. A working cell bank was prepared with each aliquot containing 1x10^7 viable cells. After thawing, these cells are dilute immediately 1:20 in pre-warmed (37° C.) culture medium. Cells are collected by centrifugation at 200 x g for 5 min, and the supernatant is replaced by 30 mL of fresh culture medium per aliquot to obtain a cell suspension containing 350000 cells/ml. From this cell suspension 100 µL are dispersed into each well of a collagen coated 96 well plate, (black, clear bottom, PS, F-bottom, Greiner) and culture for 24 h (37° C., 5% CO2). After incubation the culture medium is removed and the wells are washed once with 100 µL PBS++ (supplemented with Mg^2+/ Ca^2+, Gibco) and 50 µL assay medium (RPMI 1640 + 10 mM HEPES) are added to each well. Compounds serial dilutions are prepared from 10 mM stock solutions in DMSO using a fixed dilution factor (usually 1:3). After preparation of the dilution series in DMSO, the individual dilutions are further diluted in the assay medium. This working dilution is prepared such, that the concentration is 7x of the final concentration in the assay. The maximal DMSO concentration in the final assay is 0.1%.
To each well 10 µL compound working dilution or DMSO blank are added and the cells are cultured for 2 h (37° C., 5% CO2). Then 10 µL AlamarBlue reagent (Invitrogen) containing 14 µCi/mL ^14C-acetate (Perkin Elmer) are added to each well (70 µl total volume) and cells are again cultured for 2 h. Cell viability is verified by measuring the AlamarBlue fluorescence (Tecan Safire, ex: 544 nm / em: 590 nm). After incubation the culture medium is removed and the wells are carefully washed once with cold 100 µL PBS++. For cell lysis and fatty acid recovery 50 µl 0.1 M NaOH and 0.1 % Triton-X100 are added per well. The plate is sealed with PlateLoc (clear peelable heat seal, Agilent) and incubate at 70° C. for 16-24 h. After cooling to room temperature, the plates are centrifuged for 1 min at 1000 rpm and the plate seals are removed. For acidification 150 µL 0.1 M HCl are added to each well, mixed and 150 µL of the mixture are transferred into a 96 well FlashPlate (Perkin Elmer). The plates are sealed with TopSeaI-a (Perkin Elmer). To allow for the fatty acid binding to the well surfaces the plates are incubate for 4 h at 70° C. After cooling to room temperature, the plates are centrifuged for 1 min at 1000 rpm and stored for 0.5-2 h at room temperature in the dark. Radioactivity from ^14C incorporation into fatty acids in the wells is measured as CPM count in a MicroBeta scintillation counter (Perkin Elmer).

ACSS2 [2] = molecular target: T2, ACSS2; test: Cellular assay of 14C acetate incorporation into histones (IC50 ACSS2 cellular histone); format: cell-based; details: HCT-15 cells
In short: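 Human HCT-15 cells preincubated 1 h with compound (0.25% DMSO final), then pulsed 3 h with 14C-acetate. Histones were acid-extracted (0.2 M HCl, overnight, 4° C) after Triton lysis in sodium-butyrate buffer; incorporated 14C counted by liquid scintillation (CPM) to give IC50.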

T1 sequence (Q9NR19 whole entry): as above

## CCc1nnc(CNC(=O)c2cc3c(nc2OC)nc(C(O)(c2ccccc2)c2ccccc2)n3CC)o1 [Compound 62, 1-ethylN-[(5-ethyl-1,30,4-oxadiazol-2-yl)methyl]-2-(hydroxydiphenylmethyl)-5-methoxy-1H-imidazo[4,5-b]pyridine-6-carboxamide]
Human rec ACSS2
  IC50: 10 to 100 nM
ACSS2 [1]
  IC50: 1 to 10 nM
ACSS2 [2]
  IC50: 10 to 100 nM

## CCn1cnc(NC(=O)c2cc3c(nc2OC)nc(C(O)(c2cccs2)c2cccs2)n3CC)n1 [Compound 55, 1-ethyl-N-(1-ethyl-1H-1,2,4-triazol-3-yl)-2-[hydroxybis(thiophen-2-yl)methyl]-5-methoxy-1H-imidazo[4,5-b]pyridine-6-carboxamide]
Human rec ACSS2
  IC50: 1 to 10 nM
ACSS2 [1]
  IC50: 0.01 to 1 nM
ACSS2 [2]
  IC50: 0.01 to 1 nM

## CCn1cnc(NC(=O)c2cc3c(nc2C)nc(C(O)(c2ccccc2)c2ccccc2)n3CC)n1 [Compound 108, 1-ethyl-N-(1-ethyl-1H-1,2,4-triazol-3-yl)-2-(hydroxydiphenylmethyl)-5-methyl-1H-imidazo[4,5-b]pyridine-6-carboxamide]
Human rec ACSS2
  IC50: 1 to 10 nM
ACSS2 [1]
  IC50: 10 to 100 nM
ACSS2 [2]
  IC50: 1 to 10 nM

## CCn1cc(NC(=O)c2cc3c(nc2F)nc(C(O)(c2ccccc2)c2ccccc2)n3CC)cn1 [Compound 92, 1-ethyl-N-(1-ethyl-1H-pyrazol-4-yl)-5-fluoro-2-(hydroxydiphenylmethyl)-1H-imidazo[4,5-b]pyridine-6-carboxamide]
Human rec ACSS2
  IC50: 10 to 100 nM
ACSS2 [1]
  IC50: 1 to 10 nM
ACSS2 [2]
  IC50: 1 to 10 nM

## CCn1c(C(O)(c2ccccc2)c2ccccc2)nc2nc(Cl)c(C(=O)Nc3cnn(CCO)c3)cc21 [Compound 66, 5-chloro-1-ethyl-2-(hydroxydiphenylmethyl)-N-[1-(2-hydroxyethyl)-1H-pyrazol-4-yl]-1H-imidazo[4,5-b]pyridine-6-carboxamide]
Human rec ACSS2
  IC50: 100 to 10000 nM
ACSS2 [1]
  IC50: 1 to 10 nM
ACSS2 [2]
  IC50: 10 to 100 nM

## CCc1cnc(NC(=O)c2cc3c(nc2OC)nc(C(O)(c2ccccc2)c2ccccc2)n3CC)o1 [Compound 60, 1-ethyl-N-(5-ethyl-1,3-oxazol-2-yl)-2-(hydroxydiphenylmethyl)-5-methoxy-1H-imidazo[4,5-b]pyridine-6-carboxamide]
Human rec ACSS2
  IC50: 0.01 to 1 nM
ACSS2 [1]
  IC50: 1 to 10 nM
ACSS2 [2]
  IC50: 0.01 to 1 nM

## CCn1ccc(NC(=O)c2cc3c(nc2Cl)nc(C(O)(c2ccccc2)c2ccccc2)n3CC)n1 [Compound 83, 5-chloro-1-ethyl-N-(1-ethyl-1H-pyrazol-3-yl)-2-(hydroxydiphenylmethyl)-1H-imidazo[4,5-b]pyridine-6-carboxamide]
Human rec ACSS2
  IC50: 1 to 10 nM
ACSS2 [1]
  IC50: 1 to 10 nM
ACSS2 [2]
  IC50: 0.01 to 1 nM

## CCn1cnc(NC(=O)c2cc3c(nc2OC)nc(C(O)(c2ccc(OC(F)F)cc2)c2ccccc2F)n3CC)n1 (single isomer, unassigned) [Compound 75]
Human rec ACSS2
  IC50: 0.01 to 1 nM
ACSS2 [1]
  IC50: 0.01 to 1 nM
ACSS2 [2]
  IC50: 1 to 10 nM

## CCn1cnc(NC(=O)c2cc3c(nc2OC)nc(C(O)(c2ccccc2)c2ccc(C)s2)n3CC)n1 (racemic) [Compound 51, 1-ethyl-N-(1-ethyl-1H-1,2,4-triazol-3-yl)-2-[hydroxy(5-methylthiophen-2-yl)phenylmethyl]-5-methoxy-1H-imidazo[4,5-b]pyridine-6-carboxamide]
Human rec ACSS2
  IC50: 1 to 10 nM
ACSS2 [1]
  IC50: 1 to 10 nM
ACSS2 [2]
  IC50: 0.01 to 1 nM

## CCn1cc(NC(=O)c2cc3c(nc2OC)nc(C(O)(c2ccccc2F)c2ccccc2F)n3CC)cn1 [Compound 104, 2-[bis(2-fluorophenyl)(hydroxy)methyl]-1-ethyl-N-(1-ethyl-1H-pyrazol-4-yl)-5-methoxy-1H-imidazo[4,5-b]pyridine-6-carboxamide]
Human rec ACSS2
  IC50: 1 to 10 nM
ACSS2 [1]
  IC50: 1 to 10 nM
ACSS2 [2]
  IC50: 1 to 10 nM

## CCc1c(C(O)(c2ccccc2F)c2ccccc2F)nn2cc(Cl)c(C(=O)Nc3cnn(CC)c3)cc12 [Compound 12, 2-[Bis-(2-fluoro-phenyl)-hydroxy-methyl]-6-chloro-3-ethyl-pyrazolo[1,5-a]pyridine-5-carboxylic acid (1-ethyl-1H-pyrazol-4-yl)-amide]
Human rec ACSS2
  IC50: 1 to 10 nM
ACSS2 [1]
  IC50: 1 to 10 nM
ACSS2 [2]
  IC50: 1 to 10 nM

## CCn1c(C(O)(c2ccccc2)c2ccccc2)nc2nc(OC)c(C(=O)Nc3ncn(CCO)n3)cc21 [Compound 73, 1-ethyl-2-(hydroxydiphenylmethyl)-N-[1-(2-hydroxyethyl)-1H-1,2,4-triazol-3-yl]-5-methoxy-1H-imidazo[4,5-b]pyridine-6-carboxamide]
Human rec ACSS2
  IC50: 1 to 10 nM
ACSS2 [1]
  IC50: 10 to 100 nM
ACSS2 [2]
  IC50: 10 to 100 nM

## CCc1nnc(NC(=O)c2cc3c(nc2OC)nc(C(O)(c2ccccc2)c2ccccc2)n3CC)o1 [Compound 64, 1-ethyl-N-(5-ethyl-1,30,4-oxadiazol-2-yl)-2-(hydroxydiphenylmethyl)-5-methoxy-1H-imidazo[4,5-b]pyridine-6-carboxamide]
Human rec ACSS2
  IC50: 0.01 to 1 nM
ACSS2 [1]
  IC50: 0.01 to 1 nM
ACSS2 [2]
  IC50: 10 to 100 nM

## CCc1coc(NC(=O)c2cc3c(nc2OC)nc(C(O)(c2ccccc2)c2ccccc2)n3CC)n1 [Compound 59, 1-ethyl-N-(4-ethyl-1,3-oxazol-2-yl)-2-(hydroxydiphenylmethyl)-5-methoxy-1H-imidazo[4,5-b]pyridine-6-carboxamide]
Human rec ACSS2
  IC50: 1 to 10 nM
ACSS2 [1]
  IC50: 0.01 to 1 nM
ACSS2 [2]
  IC50: 0.01 to 1 nM

## CCn1c(C(O)(c2ccccc2)c2ccccc2)nc2nc(OC)c(C(=O)Nc3ncn(CCN)n3)cc21 [Compound 46, N-[1-(2-aminoethyl)-1H-1,2,4-triazol-3-yl]-1-ethyl-2-(hydroxydiphenylmethyl)-5-methoxy-1H-imidazo[4,5-b]pyridine-6-carboxamide]
Human rec ACSS2
  IC50: 10 to 100 nM
ACSS2 [1]
  IC50: 100 to 10000 nM
ACSS2 [2]
  IC50: 100 to 10000 nM

## CCn1c(C(O)(c2ccccc2)c2ccccn2)nc2nc(OC)c(C(=O)Nc3ncn(CCO)n3)cc21 (racemic) [Compound 61, 1-ethyl-2-[hydroxy(phenyl)(pyridin-2-yl)methyl]-N-[1-(2-hydroxyethyl)-1H-1,2,4-triazol-3-yl]-5-methoxy-1H-imidazo[4,5-b]pyridine-6-carboxamide]
Human rec ACSS2
  IC50: 10 to 100 nM
ACSS2 [1]
  IC50: 0.01 to 1 nM
ACSS2 [2]
  IC50: 10 to 100 nM

## CCn1cnc(NC(=O)c2cc3c(nc2OC)nc(C(O)(c2ccccc2)c2ccccc2)n3CC)c1 [Compound 76, 1-ethyl-N-(1-ethyl-1H-imidazol-4-yl)-2-(hydroxydiphenylmethyl)-5-methoxy-1H-imidazo[4,5-b]pyridine-6-carboxamide]
Human rec ACSS2
  IC50: 1 to 10 nM
ACSS2 [1]
  IC50: 1 to 10 nM
ACSS2 [2]
  IC50: 1 to 10 nM

## CCn1cc(NC(=O)c2cnc3nc(C(O)(c4ccccc4F)c4ccccc4F)n(CC)c3c2)cn1 [Compound 112, 2-[bis(2-fluorophenyl)(hydroxy)methyl]-1-ethyl-N-(1-ethyl-1H-pyrazol-4-yl)-1H-imidazo[4,5-b]pyridine-6-carboxamide]
Human rec ACSS2
  IC50: 10 to 100 nM
ACSS2 [2]
  IC50: 10 to 100 nM

## CCn1cnc(NC(=O)c2cc3c(nc2OC)nc(C(O)(c2ccccc2)c2ccc(OC(F)F)cc2F)n3CC)n1 (racemic) [Compound 78, 2-{[4-(difluoromethoxy)-2-fluorophenyl](hydroxy)phenylmethyl}-1-ethyl-N-(1-ethyl-1H-1,2,4-triazol-3-yl)-5-methoxy-1H-imidazo[4,5-b]pyridine-6-carboxamide]
Human rec ACSS2
  IC50: 1 to 10 nM
ACSS2 [2]
  IC50: 0.01 to 1 nM

## CCn1cnc(NC(=O)c2cc3c(nc2C)nc(C(O)(c2ccccc2F)c2ccc(OC(F)F)cc2F)n3CC)n1 (racemic) [Compound 97, 2-{[4-(difluoromethoxy)-2-fluorophenyl](2-fluorophenyl)hydroxymethyl}-1-ethyl-N-(1-ethyl-1H-1,2,4-triazol-3-yl)-5-methyl-1H-imidazo[4,5-b]pyridine-6-carboxamide]
Human rec ACSS2
  IC50: 1 to 10 nM
ACSS2 [2]
  IC50: 10 to 100 nM
